Assay results: PubChem BioAssay AID248 (DTP/NCI, 2004)
Several values for one entry are separate records, joined by “and”; a condition that tells them apart may be missing. Equal entries are not always repeated. Toxic doses and inconclusive results are not listed. No stated cut-off is given here; in the data, active means T/C of 150% or more; inactive means T/C below 125%.

Test system: L1210 leukemia ip in BDF1 mice, survival T/C
Assay: NCI In Vivo Anticancer Drug Screen. Data for tumor model L1210 Leukemia (intraperitoneal) in B6D2F1 (BDF1) mice
Conditions: endpoint: mean survival time, higher = longer survival
How it was run: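 Each compound was tested against a transplantable tumor grown in mice. The endpoint was survival, with treated animals benchmarked against vehicle controls as a simple ratio.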

[1] = dose: 50.0 mg/kg/injection, schedule: Q01DX009 (ip), vehicle: Klucel (hydroxypropylcellulose) (HPC)
[2] = dose: 6.25 mg/kg/injection, schedule: Q01DX009 (ip), vehicle: saline
[3] = dose: 12.5 mg/kg/injection, schedule: Q01DX009 (ip), vehicle: saline
[4] = dose: 100.0 mg/kg/injection, schedule: Q04DX003 (ip), vehicle: saline with Tween-80
[5] = dose: 200.0 mg/kg/injection, schedule: Q04DX003 (ip), vehicle: saline with Tween-80
[6] = dose: 100.0 mg/kg/injection, schedule: Q01DX001 (ip), vehicle: saline
[7] = dose: 200.0 mg/kg/injection, schedule: Q01DX001 (ip), vehicle: saline

Measured: T/C

CCCCCN(CCCCC)CCCNc1c2c(nc3ccc(OC)cc13)CCCC2
inactive: dose: 2.5 mg/kg/injection, schedule: Q01DX009 (ip), vehicle: saline 100 % of control | dose: 5.0 mg/kg/injection, schedule: Q01DX001 (ip), vehicle: saline 98 % of control | dose: 5.0 mg/kg/injection, schedule: Q01DX009 (ip), vehicle: saline 104 % of control | dose: 9.0 mg/kg/injection, schedule: Q01DX001 (ip), vehicle: saline 94 % of control and 102 % of control | dose: 10.0 mg/kg/injection, schedule: Q01DX001 (ip), vehicle: saline 96 % of control | dose: 10.0 mg/kg/injection, schedule: Q01DX009 (ip), vehicle: saline 98 % of control | dose: 13.0 mg/kg/injection, schedule: Q01DX001 (ip), vehicle: saline 94 % of control | dose: 14.0 mg/kg/injection, schedule: Q01DX001 (ip), vehicle: saline 104 % of control | dose: 20.0 mg/kg/injection, schedule: Q01DX001 (ip), vehicle: saline 93 % of control and 102 % of control (2×) | dose: 20.0 mg/kg/injection, schedule: Q01DX009 (ip), vehicle: saline 100 % of control | dose: 30.0 mg/kg/injection, schedule: Q01DX001 (ip), vehicle: saline 98 % of control

Cc1ccc(NC(=O)OCCOc2ccc([N+](=O)[O-])cc2)c([N+](=O)[O-])c1
inactive: [1] 102 % of control | dose: 100.0 mg/kg/injection, schedule: Q01DX009 (ip), vehicle: Klucel (hydroxypropylcellulose) (HPC) 91 % of control | dose: 100.0 mg/kg/injection, schedule: Q04DX003 (ip), vehicle: Klucel (hydroxypropylcellulose) (HPC) 97 % of control | dose: 200.0 mg/kg/injection, schedule: Q01DX009 (ip), vehicle: Klucel (hydroxypropylcellulose) (HPC) 91 % of control | dose: 200.0 mg/kg/injection, schedule: Q04DX003 (ip), vehicle: Klucel (hydroxypropylcellulose) (HPC) 102 % of control | dose: 400.0 mg/kg/injection, schedule: Q04DX003 (ip), vehicle: Klucel (hydroxypropylcellulose) (HPC) 95 % of control

CC1CCCCN1Cc1ccccc1COC(=O)c1cccc(Br)c1 (stereo not drawn)
inactive: dose: 100.0 mg/kg/injection, schedule: Q01DX001 (ip), vehicle: Klucel (hydroxypropylcellulose) (HPC) 104 % of control | dose: 200.0 mg/kg/injection, schedule: Q01DX001 (ip), vehicle: Klucel (hydroxypropylcellulose) (HPC) 96 % of control

CS(=O)(=O)N(CC(=O)O)Cc1cccc(Cl)c1
inactive: dose: 100.0 mg/kg/injection, schedule: Q01DX009 (ip), vehicle: other 100 % of control | dose: 100.0 mg/kg/injection, schedule: Q04DX003 (ip), vehicle: other 100 % of control | dose: 200.0 mg/kg/injection, schedule: Q01DX009 (ip), vehicle: other 101 % of control | dose: 200.0 mg/kg/injection, schedule: Q04DX003 (ip), vehicle: other 102 % of control | dose: 400.0 mg/kg/injection, schedule: Q01DX009 (ip), vehicle: other 97 % of control | dose: 400.0 mg/kg/injection, schedule: Q04DX003 (ip), vehicle: other 103 % of control

CC1(C)CCC(C#N)=C1N
inactive: dose: 12.5 mg/kg/injection, schedule: Q01DX009 (ip), vehicle: saline with Tween-80 93 % of control | dose: 25.0 mg/kg/injection, schedule: Q01DX009 (ip), vehicle: saline with Tween-80 105 % of control | dose: 50.0 mg/kg/injection, schedule: Q01DX009 (ip), vehicle: saline with Tween-80 88 % of control

O=C(c1ccc(Cl)cc1)C(C(c1ccc([N+](=O)[O-])cc1)N1CCCCC1)N1CCCCC1 (stereo not drawn)
inactive: dose: 12.5 mg/kg/injection, schedule: Q01DX001 (ip), vehicle: Klucel (hydroxypropylcellulose) (HPC) 98 % of control | dose: 12.5 mg/kg/injection, schedule: Q01DX009 (ip), vehicle: Klucel (hydroxypropylcellulose) (HPC) 102 % of control | dose: 25.0 mg/kg/injection, schedule: Q01DX001 (ip), vehicle: Klucel (hydroxypropylcellulose) (HPC) 104 % of control | dose: 25.0 mg/kg/injection, schedule: Q01DX009 (ip), vehicle: Klucel (hydroxypropylcellulose) (HPC) 98 % of control | dose: 50.0 mg/kg/injection, schedule: Q01DX001 (ip), vehicle: Klucel (hydroxypropylcellulose) (HPC) 102 % of control | [1] 101 % of control | dose: 400.0 mg/kg/injection, schedule: Q01DX001 (ip), vehicle: Klucel (hydroxypropylcellulose) (HPC) 92 % of control

CN1CCC(CNC(=O)CCCCCCCCC(=O)NCC2(c3ccccc3)CCN(C)CC2)(c2ccccc2)CC1
inactive: dose: 0.63 mg/kg/injection, schedule: Q01DX Z (ip), vehicle: saline 89 % of control | dose: 1.25 mg/kg/injection, schedule: Q01DX Z (ip), vehicle: saline 89 % of control | dose: 2.5 mg/kg/injection, schedule: Q01DX Z (ip), vehicle: saline 88 % of control | dose: 5.0 mg/kg/injection, schedule: Q01DX Z (ip), vehicle: saline 86 % of control | dose: 5.0 mg/kg/injection, schedule: Q04DX003 (ip), vehicle: saline with Tween-80 102 % of control

CCN(CC)CCCN1c2ccccc2Sc2ccc(Cl)cc21
inactive: dose: 1.56 mg/kg/injection, schedule: Q01DX009 (ip), vehicle: saline 102 % of control | dose: 3.12 mg/kg/injection, schedule: Q01DX009 (ip), vehicle: saline 98 % of control | [2] 96 % of control | [3] 103 % of control | dose: 12.5 mg/kg/injection, schedule: Q04DX003 (ip), vehicle: saline 102 % of control | dose: 25.0 mg/kg/injection, schedule: Q04DX003 (ip), vehicle: saline 109 % of control

CC(O)Cc1c[nH]c(=O)[nH]c1=O (stereo not drawn)
inactive: dose: 100.0 mg/kg/injection, schedule: Q01DX009 (ip), vehicle: water 98 % of control | dose: 100.0 mg/kg/injection, schedule: Q04DX003 (ip), vehicle: water 94 % of control | dose: 200.0 mg/kg/injection, schedule: Q01DX009 (ip), vehicle: water 107 % of control | dose: 200.0 mg/kg/injection, schedule: Q04DX003 (ip), vehicle: water 98 % of control | dose: 400.0 mg/kg/injection, schedule: Q01DX009 (ip), vehicle: water 96 % of control | dose: 400.0 mg/kg/injection, schedule: Q04DX003 (ip), vehicle: water 93 % of control

Cc1ccccc1CC#N
inactive: [2] 108 % of control | [3] 108 % of control | dose: 25.0 mg/kg/injection, schedule: Q01DX009 (ip), vehicle: saline 101 % of control

COc1ccc(C(=O)C[N+](=O)[O-])cc1
inactive: dose: 100.0 mg/kg/injection, schedule: Q01DX009 (ip), vehicle: saline with Tween-80 94 % of control | [4] 106 % of control | dose: 200.0 mg/kg/injection, schedule: Q01DX009 (ip), vehicle: saline with Tween-80 99 % of control | [5] 103 % of control | dose: 400.0 mg/kg/injection, schedule: Q04DX003 (ip), vehicle: saline with Tween-80 101 % of control

CCCCCC#CCO
inactive: [4] 108 % of control | [5] 101 % of control

[I][Ga]([I])[I]
inactive: [6] 101 % of control | [7] 108 % of control | dose: 400.0 mg/kg/injection, schedule: Q01DX001 (ip), vehicle: saline 111 % of control

Cc1ccc2nc(CCl)[nH]c2c1
inactive: dose: 50.0 mg/kg/injection, schedule: Q01DX001 (ip), vehicle: saline 119 % of control | [6] 113 % of control | [7] 107 % of control
